Reference: ChEMBL document CHEMBL1201862, “PubChem BioAssay data set” (2004)
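Dose response: 5 concentrations. Exposure: 48 h. Format: 96-well plates. Endpoint: linear interpolation; highest concentration if not reached. Abbreviation: GI50, concentration required for 50% inhibition of growth.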 Calls of active or inactive are those of the source. No stated cut-off is given here; in the data, active = GI50 up to about 1.1 µM and inactive = higher.

Assays:
Experiment in all cases: NCI tumour cell line growth inhibition, 48 h
786-0 = test system: 786-0
A498 = test system: A498
A549 = test system: A549
ACHN = test system: ACHN
CAKI-1 = test system: CAKI-1
CCRF-CEM = test system: CCRF-CEM
HCC 2998 = test system: HCC 2998
HCT-15 = test system: HCT-15
HOP-62 = test system: HOP-62
LOX IMVI = test system: LOX IMVI
NCI-H23 = test system: NCI-H23
OVCAR-3 = test system: OVCAR-3
OVCAR-4 = test system: OVCAR-4
OVCAR-8 = test system: OVCAR-8
RPMI-8226 = test system: RPMI-8226
SK-MEL-2 = test system: SK-MEL-2
SK-MEL-5 = test system: SK-MEL-5
SK-OV-3 = test system: SK-OV-3
MCF7 = test system: MCF7
T47D = test system: T47D

| SMILES | GI50 (786-0) | GI50 (A498) | GI50 (A549) | GI50 (ACHN) | GI50 (CAKI-1) | GI50 (CCRF-CEM) | GI50 (HCC 2998) | GI50 (HCT-15) | GI50 (HOP-62) | GI50 (LOX IMVI) | GI50 (NCI-H23) | GI50 (OVCAR-3) | GI50 (OVCAR-4) | GI50 (OVCAR-8) | GI50 (RPMI-8226) | GI50 (SK-MEL-2) | GI50 (SK-MEL-5) | GI50 (SK-OV-3) | GI50 (MCF7) | GI50 (T47D) |
| --- | --- | --- | --- | --- | --- | --- | --- | --- | --- | --- | --- | --- | --- | --- | --- | --- | --- | --- | --- | --- |
| CC1=NN(C(=O)c2ccc(Cl)cc2)C(=O)/C1=C/c1cccc([N+](=O)[O-])c1 | > 100 µM (inactive) | > 100 µM (inactive) | > 100 µM (inactive) | > 100 µM (inactive) | > 100 µM (inactive) | > 100 µM (inactive) | > 100 µM (inactive) | > 100 µM | > 100 µM (inactive) | > 100 µM (inactive) | > 100 µM (inactive) | > 100 µM (inactive) | > 100 µM (inactive) | > 100 µM (inactive) | > 100 µM (inactive) | > 100 µM (inactive) | > 100 µM (inactive) | > 100 µM (inactive) | – | – |
| C=CCNC(=O)C(C)C1CCC2(C)C=CC(=O)C(C)=C2C1O (centres undefined) | – | > 100 µM (inactive) | > 100 µM (inactive) | – | > 100 µM (inactive) | > 100 µM (inactive) | > 100 µM (inactive) | > 100 µM | > 100 µM (inactive) | > 100 µM (inactive) | > 100 µM (inactive) | > 100 µM (inactive) | > 100 µM (inactive) | > 100 µM (inactive) | > 100 µM (inactive) | > 100 µM (inactive) | > 100 µM (inactive) | > 100 µM (inactive) | > 100 µM (inactive) | – |
| COc1cc(/C=C2\CCc3ccccc3C2=O)ccc1O | 13.7 µM (inactive) | > 10 µM (inactive) | 22.1 µM (inactive) | 26.4 µM (inactive) | 24.3 µM (inactive) | 1.41 µM (inactive) | 5.64 µM (inactive) | 22.4 µM | – | 15 µM (inactive) | 23 µM (inactive) | 19.6 µM (inactive) | 18.5 µM (inactive) | 19.1 µM (inactive) | 17.9 µM (inactive) | – | 17.7 µM (inactive) | 26 µM (inactive) | 11.1 µM (inactive) | – |
| CCOC(=O)c1csc(-c2nc(CCNC(=O)c3ccccc3)sc2Cl)n1 | > 100 µM (inactive) | 15.4 µM (inactive) | > 100 µM (inactive) | > 100 µM (inactive) | – | 30.5 µM (inactive) | > 100 µM (inactive) | 51.3 µM | 55.7 µM (inactive) | – | 40.9 µM (inactive) | 45.8 µM (inactive) | – | 45 µM (inactive) | 44 µM (inactive) | – | 42.7 µM (inactive) | > 100 µM (inactive) | 67.6 µM (inactive) | – |
| COc1ccccc1Cn1c2c(c3cc(O)ccc31)C(=O)c1ccccc1C2=O | 13.3 µM (inactive) | 93.8 µM (inactive) | 19.5 µM (inactive) | – | 16.7 µM (inactive) | 37.5 µM (inactive) | – | 90.2 µM | 16.1 µM (inactive) | 12.4 µM (inactive) | 20 µM (inactive) | 28.9 µM (inactive) | 3.21 µM (inactive) | 11.7 µM (inactive) | 15.3 µM (inactive) | 38.6 µM (inactive) | 37.2 µM (inactive) | 2.42 µM (inactive) | 10.1 µM (inactive) | – |
| CCOC(=O)/C(C#N)=C(N)/C(=N\Nc1cccc(C(F)(F)F)c1)C(=O)OCC | > 100 µM (inactive) | > 100 µM (inactive) | > 100 µM (inactive) | > 100 µM (inactive) | > 100 µM (inactive) | > 100 µM (inactive) | > 100 µM (inactive) | > 100 µM | > 100 µM (inactive) | > 100 µM (inactive) | > 100 µM (inactive) | > 100 µM (inactive) | > 100 µM (inactive) | > 100 µM (inactive) | > 100 µM (inactive) | > 100 µM (inactive) | > 100 µM (inactive) | > 100 µM (inactive) | – | – |
| COc1ccc(-c2nc(-c3cc4ccccc4oc3=O)cs2)cc1 | 31.3 µM (inactive) | – | 85.7 µM (inactive) | 34 µM (inactive) | > 100 µM (inactive) | > 100 µM (inactive) | 77.8 µM (inactive) | > 100 µM | 32 µM (inactive) | > 100 µM (inactive) | – | – | > 100 µM (inactive) | 23.2 µM (inactive) | > 100 µM (inactive) | > 100 µM (inactive) | > 100 µM (inactive) | 29.6 µM (inactive) | > 100 µM (inactive) | > 100 µM (inactive) |
| CC1CCCP(=O)(c2ccccc2)CC1 (centres undefined) | > 100 µM (inactive) | > 100 µM (inactive) | > 100 µM (inactive) | > 100 µM (inactive) | > 100 µM (inactive) | > 100 µM (inactive) | > 100 µM (inactive) | > 100 µM | > 100 µM (inactive) | > 100 µM (inactive) | > 100 µM (inactive) | > 100 µM (inactive) | > 100 µM (inactive) | > 100 µM (inactive) | > 100 µM (inactive) | > 100 µM (inactive) | > 100 µM (inactive) | > 100 µM (inactive) | – | – |
| Oc1ccc(O)c(CNc2ccccc2)c1 | 10.3 µM (inactive) | – | 26.4 µM (inactive) | 10.5 µM (inactive) | 6.89 µM (inactive) | 2.37 µM (inactive) | 26.2 µM (inactive) | 10.3 µM | – | 6.15 µM (inactive) | 10.2 µM (inactive) | 4.62 µM (inactive) | 13 µM (inactive) | 8.02 µM (inactive) | 1.02 µM (active) | 24.2 µM (inactive) | 16.8 µM (inactive) | 19.2 µM (inactive) | 15.1 µM (inactive) | 8.41 µM (inactive) |
| COc1ccc(NC(=O)CSc2nnc(Cc3ccccc3)o2)cc1 | > 100 µM (inactive) | > 100 µM (inactive) | > 100 µM (inactive) | > 100 µM (inactive) | > 100 µM (inactive) | 82.2 µM (inactive) | > 100 µM (inactive) | > 100 µM | > 100 µM (inactive) | 53.5 µM (inactive) | 61.5 µM (inactive) | 78.3 µM (inactive) | > 100 µM (inactive) | > 100 µM (inactive) | 41.4 µM (inactive) | > 100 µM (inactive) | 85.1 µM (inactive) | > 100 µM (inactive) | – | – |
| CCOC(=O)Nc1ccc(S(=O)(=O)OC)cc1.CCOC(=O)Nc1ccc(S(=O)(=O)OC)cc1.NC(=O)NCCO | 19.9 µM (inactive) | > 50 µM (inactive) | > 50 µM (inactive) | > 50 µM (inactive) | 48.6 µM (inactive) | 23.3 µM (inactive) | > 50 µM (inactive) | 21.6 µM | 23.6 µM (inactive) | 21.3 µM (inactive) | > 50 µM (inactive) | > 50 µM (inactive) | 41.9 µM (inactive) | 42.3 µM (inactive) | 17.1 µM (inactive) | > 50 µM (inactive) | > 50 µM (inactive) | > 50 µM (inactive) | – | – |
| COC(=O)C1CC2(c3ccccc3)C(=O)c3ccccc3N2O1 (centres undefined) | 35.4 µM (inactive) | > 100 µM (inactive) | > 100 µM (inactive) | 49.2 µM (inactive) | 36.5 µM (inactive) | 30.3 µM (inactive) | > 100 µM (inactive) | 43.1 µM | 71.3 µM (inactive) | 26.1 µM (inactive) | > 100 µM (inactive) | 70.6 µM (inactive) | > 100 µM (inactive) | 41.9 µM (inactive) | 17.7 µM (inactive) | 39.3 µM (inactive) | 74.8 µM (inactive) | > 100 µM (inactive) | – | – |
